Assay results taken from paper PMC6236447 (Molecules : A Journal of Synthetic Chemistry and Natural …, 2001).
Where a SMILES comes first, the peptide text is derived from it. [ ]: non-standard residue; d: D form. Ahx = NCCCCCC(=O)O

Legend:
[1] = target: hY4-receptor (Homo sapiens, UniProt P50391); test: Radioligand displacement binding on transfected BHK membranes
[2] = target: T1, hY5-receptor (Homo sapiens, UniProt Q15761); test: as above
T1 sequence (Q15761 1-445): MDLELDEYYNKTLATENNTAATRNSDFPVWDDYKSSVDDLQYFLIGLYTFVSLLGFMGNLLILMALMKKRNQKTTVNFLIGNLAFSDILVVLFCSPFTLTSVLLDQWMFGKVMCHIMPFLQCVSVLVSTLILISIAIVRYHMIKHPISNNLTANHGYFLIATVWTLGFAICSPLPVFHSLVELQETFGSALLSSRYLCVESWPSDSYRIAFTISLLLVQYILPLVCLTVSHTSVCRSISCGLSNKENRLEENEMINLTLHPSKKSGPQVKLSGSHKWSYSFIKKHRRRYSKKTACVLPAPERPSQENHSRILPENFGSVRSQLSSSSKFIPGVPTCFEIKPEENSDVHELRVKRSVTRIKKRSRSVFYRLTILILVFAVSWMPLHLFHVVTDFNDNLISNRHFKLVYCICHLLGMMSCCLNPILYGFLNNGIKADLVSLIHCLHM

[3] = target: T2, hY1-receptor (Homo sapiens, UniProt P25929); test: Radioligand displacement binding on SK-N-MC membranes
T2 sequence (P25929 1-384): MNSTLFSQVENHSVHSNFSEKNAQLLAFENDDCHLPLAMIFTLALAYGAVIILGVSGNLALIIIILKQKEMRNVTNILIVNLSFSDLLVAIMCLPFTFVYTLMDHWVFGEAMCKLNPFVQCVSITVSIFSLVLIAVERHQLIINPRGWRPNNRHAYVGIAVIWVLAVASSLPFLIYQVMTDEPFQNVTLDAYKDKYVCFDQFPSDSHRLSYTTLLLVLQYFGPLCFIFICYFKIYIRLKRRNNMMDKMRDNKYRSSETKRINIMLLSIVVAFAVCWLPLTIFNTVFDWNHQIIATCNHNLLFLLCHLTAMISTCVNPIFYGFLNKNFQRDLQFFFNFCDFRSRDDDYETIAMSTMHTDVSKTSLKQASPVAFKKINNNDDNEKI

[4] = target: T3, hY2-receptor (Homo sapiens, UniProt P49146); test: Radioligand displacement binding on SMS-KAN membranes
T3 sequence (P49146 1-381): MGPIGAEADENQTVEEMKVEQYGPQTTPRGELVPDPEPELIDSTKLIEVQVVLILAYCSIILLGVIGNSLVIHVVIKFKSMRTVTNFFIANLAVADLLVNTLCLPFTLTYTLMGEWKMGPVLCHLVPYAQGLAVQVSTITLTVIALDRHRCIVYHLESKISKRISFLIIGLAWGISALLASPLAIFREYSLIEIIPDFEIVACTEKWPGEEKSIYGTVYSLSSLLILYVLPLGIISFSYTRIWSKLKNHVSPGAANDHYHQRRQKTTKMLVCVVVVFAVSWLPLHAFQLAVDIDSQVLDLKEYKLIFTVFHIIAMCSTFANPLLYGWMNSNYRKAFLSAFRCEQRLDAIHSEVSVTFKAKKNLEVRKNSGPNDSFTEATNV

Chain of hY4-receptor (P50391 whole entry): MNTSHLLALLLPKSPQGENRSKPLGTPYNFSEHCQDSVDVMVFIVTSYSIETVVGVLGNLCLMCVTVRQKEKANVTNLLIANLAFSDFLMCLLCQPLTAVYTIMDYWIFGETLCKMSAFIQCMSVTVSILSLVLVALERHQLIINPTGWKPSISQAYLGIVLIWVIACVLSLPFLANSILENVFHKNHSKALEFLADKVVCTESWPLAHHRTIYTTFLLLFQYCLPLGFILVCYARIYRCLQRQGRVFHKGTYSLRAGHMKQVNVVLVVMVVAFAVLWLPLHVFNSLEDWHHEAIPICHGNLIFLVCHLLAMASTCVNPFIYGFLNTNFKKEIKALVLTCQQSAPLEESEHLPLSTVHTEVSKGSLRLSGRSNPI

In the case of `CC[C@H](C)[C@H](NC(=O)[C@H](Cc1ccc(O)cc1)NC(=O)[C@H](Cc1c[nH]cn1)NC(=O)[C@H](CCCNC(=N)N)NC(=O)[C@H](CC(C)C)NC(=O)[C@H](C)NC(=O)[C@H](CO)NC(=O)[C@H](Cc1ccc(O)cc1)NC(=O)CCCCCNC(=O)[C@H](CC(N)=O)NC(=O)[C@H](CC(=O)O)NC(=O)[C@@H]1CCCN1C(=O)[C@H](CCCCN)NC(=O)[C@H](CO)NC(=O)[C@@H]1CCCN1C(=O)[C@@H](N)Cc1ccc(O)cc1)C(=O)N[C@@H](CC(N)=O)C(=O)N[C@@H](CC(C)C)C(=O)N[C@H](C(=O)N[C@H](C(=O)N[C@@H](CCCNC(=N)N)C(=O)N[C@@H](CCC(N)=O)C(=O)N[C@@H](CCCNC(=N)N)C(=O)N[C@@H](Cc1ccc(O)cc1)C(N)=O)[C@@H](C)O)[C@@H](C)CC` [[Ahx^8-20]-NPY] (H-YPSKPDN[Ahx]YSALRHYINLITRQRY-NH2), the IC50 [1] is reported as 67 nM and the IC50 [2] is reported as 31 nM.

In the case of `CC[C@H](C)[C@H](NC(=O)[C@H](Cc1ccc(O)cc1)NC(=O)[C@H](Cc1cnc[nH]1)NC(=O)[C@H](CCCNC(=N)N)NC(=O)CCCCCNC(=O)[C@H](CCCCN)NC(=O)[C@H](CO)NC(=O)[C@@H]1CCCN1C(=O)[C@@H](N)Cc1ccc(O)cc1)C(=O)N[C@@H](CC(N)=O)C(=O)N[C@@H](CC(C)C)C(=O)N[C@H](C(=O)N[C@H](C(=O)N[C@@H](CCCNC(=N)N)C(=O)N[C@@H](CCC(N)=O)C(=O)N[C@@H](CCCNC(=N)N)C(=O)N[C@@H](Cc1ccc(O)cc1)C(N)=O)[C@@H](C)O)[C@@H](C)CC` [[Ahx^5-24]-NPY] (H-YPSK[Ahx]RHYINLITRQRY-NH2), the IC50 [3] is reported as greater than 1000 nM, the IC50 [4] is reported as 1.4 nM and the IC50 [1] is reported as 600 nM. It also gave an IC50 [2] of 795 nM.

Molecule `CC[C@H](C)[C@H](NC(=O)[C@H](Cc1ccc(O)cc1)NC(=O)[C@H](CCCNC(=N)N)NC(=O)[C@H](CCCNC(=N)N)NC(=O)CCCCCNC(=O)[C@H](CCC(=O)O)NC(=O)[C@H](CC(C)C)NC(=O)[C@@H]1CCCN1C(=O)[C@H](C)N)C(=O)N[C@@H](CC(N)=O)C(=O)N[C@@H](CCSC)C(=O)N[C@@H](CC(C)C)C(=O)N[C@H](C(=O)N[C@@H](CCCNC(=N)N)C(=O)N1CCC[C@H]1C(=O)N[C@@H](CCCNC(=N)N)C(=O)N[C@@H](Cc1ccc(O)cc1)C(N)=O)[C@@H](C)O` [[Ahx^5-24]-hPP] (H-APLE[Ahx]RRYINMLTRPRY-NH2) has an IC50 [3] greater than 500 nM, an IC50 [4] greater than 1000 nM and an IC50 [1] of 144 nM. For the same molecule, the IC50 [2] was greater than 1000 nM.

`CC[C@H](C)[C@H](NC(=O)[C@H](Cc1ccc(O)cc1)NC(=O)[C@H](CCCNC(=N)N)NC(=O)[C@H](CCCNC(=N)N)NC(=O)[C@H](CC(C)C)NC(=O)[C@H](CC(=O)O)NC(=O)[C@H](C)NC(=O)[C@H](C)NC(=O)CCCCCNC(=O)[C@H](CCC(=O)O)NC(=O)[C@H](CC(C)C)NC(=O)[C@@H]1CCCN1C(=O)[C@H](C)N)C(=O)N[C@@H](CC(N)=O)C(=O)N[C@@H](CCSC)C(=O)N[C@@H](CC(C)C)C(=O)N[C@H](C(=O)N[C@@H](CCCNC(=N)N)C(=O)N1CCC[C@H]1C(=O)N[C@@H](CCCNC(=N)N)C(=O)N[C@@H](Cc1ccc(O)cc1)C(N)=O)[C@@H](C)O` [[Ahx^5-20]-hPP] (H-APLE[Ahx]AADLRRYINMLTRPRY-NH2) showed an IC50 [3] greater than 1500 nM, an IC50 [4] greater than 1000 nM and an IC50 [1] of 216 nM. The IC50 [2] was greater than 7000 nM.

`CC[C@H](C)[C@H](NC(=O)[C@H](Cc1ccc(O)cc1)NC(=O)[C@H](Cc1c[nH]cn1)NC(=O)[C@H](CCCNC(=N)N)NC(=O)CCCCCNC(=O)[C@H](CCCCN)NC(=O)[C@H](CO)NC(=O)[C@@H]1CCCN1C(=O)[C@@H](N)Cc1ccc(O)cc1)C(=O)N[C@@H](CC(N)=O)C(=O)N[C@@H](CC(C)C)C(=O)N[C@H](C(=O)N[C@H](C(=O)N[C@@H](CCCNC(=N)N)C(=O)N1CCC[C@H]1C(=O)N[C@@H](CCCNC(=N)N)C(=O)N[C@@H](Cc1ccc(O)cc1)C(N)=O)[C@@H](C)O)[C@@H](C)CC` [[Ahx^5-24, ^P34]-NPY] (H-YPSK[Ahx]RHYINLITRPRY-NH2) was tested, and the IC50 [1] was 514 nM and the IC50 [2] was greater than 10000 nM.
